Where two headings read alike, the source gives them in different places.
Tests used:
[1] = biological target: CDK7/Cyclin H/MNAT1 (Homo sapiens, UniProt P50613); assay: Inhibition of CDK7/Cyclin H/MNAT1 kinase activity (ADP-Glo); type: biochemical
How it was run: (§1)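 ADP-Glo luminescence quantified ATP consumption after a 40-60 minute, 25° C. reaction with ATP plus CDKtide, Histone H1 or PDKtide, following a 10-minute compound–kinase preincubation in DTT-supplemented kinase buffer A. Compounds spanned 11 concentrations from 50 μM in 4-fold dilutions; IC50 fitted to a four-parameter model.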

[2] = biological target: CDK2/Cyclin A (Homo sapiens, UniProt P24941); assay: Inhibition of CDK2/Cyclin A kinase activity (ADP-Glo); type: biochemical
How it was run: as §1

[3] = biological target: CDK9/Cyclin K (Homo sapiens, UniProt P50750); assay: Inhibition of CDK9/Cyclin K kinase activity (ADP-Glo); type: biochemical
Sequence of CDK9/Cyclin K (P50750 whole entry): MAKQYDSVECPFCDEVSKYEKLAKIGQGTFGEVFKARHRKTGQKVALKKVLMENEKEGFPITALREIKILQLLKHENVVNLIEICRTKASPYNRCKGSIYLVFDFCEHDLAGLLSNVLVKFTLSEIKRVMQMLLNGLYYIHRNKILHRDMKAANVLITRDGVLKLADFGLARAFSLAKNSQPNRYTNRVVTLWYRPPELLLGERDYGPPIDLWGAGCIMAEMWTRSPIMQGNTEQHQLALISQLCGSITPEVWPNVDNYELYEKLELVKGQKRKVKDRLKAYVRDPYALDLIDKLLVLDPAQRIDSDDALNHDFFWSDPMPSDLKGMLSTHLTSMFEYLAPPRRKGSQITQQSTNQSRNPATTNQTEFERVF
Sequence of CDK9/Cyclin K (O75909 whole entry partner): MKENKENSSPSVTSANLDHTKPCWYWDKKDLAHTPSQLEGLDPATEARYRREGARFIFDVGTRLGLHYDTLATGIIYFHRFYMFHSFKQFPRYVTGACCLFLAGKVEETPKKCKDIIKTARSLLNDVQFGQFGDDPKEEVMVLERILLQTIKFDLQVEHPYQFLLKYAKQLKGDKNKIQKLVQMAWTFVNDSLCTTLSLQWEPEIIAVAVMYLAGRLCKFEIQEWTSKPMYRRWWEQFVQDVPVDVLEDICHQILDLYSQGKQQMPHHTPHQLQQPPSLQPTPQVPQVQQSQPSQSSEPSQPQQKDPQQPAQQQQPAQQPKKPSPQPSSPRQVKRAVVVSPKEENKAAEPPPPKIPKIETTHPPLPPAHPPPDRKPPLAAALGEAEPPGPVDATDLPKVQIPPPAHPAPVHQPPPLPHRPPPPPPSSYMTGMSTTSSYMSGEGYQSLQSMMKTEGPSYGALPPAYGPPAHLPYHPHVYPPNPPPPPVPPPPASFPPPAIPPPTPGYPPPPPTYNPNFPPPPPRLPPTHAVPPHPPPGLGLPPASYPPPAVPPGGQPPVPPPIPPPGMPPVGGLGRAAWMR
How it was run: as §1

[4] = system: MDA-MB-468 (triple negative breast cancer); assay: Antiproliferative assay on MDA-MB-468 cells (AlamarBlue, 96 h); type: cell-based; conditions: Homo sapiens, mean value from several measurements
[5] = system: NCl-H82 (small cell lung cancer); assay: Antiproliferative assay on NCl-H82 cells (AlamarBlue, 120 h); type: cell-based; conditions: mean value from several measurements
Protocol: The antiproliferative activity of CDK7 inhibitors according to the present invention was evaluated in a cell test using continuous cell cultures: MDA-MB-468 (triple negative breast cancer, ATCC® HTB-132™) and NCl-H82 (small cell lung cancer, ATCC® HTB-175™) using a viable AlamarBlue dye (Thermo Fisher Scientific Inc, order no. DAL1100). The cells were grown in DMEM (PanEco, order no. C330π) and RPMI-1640 (PanEco, order no. C330π), respectively. The basal growth medium was enriched with L-glutamine at a concentration of 2 mM (PanEco, order no. Φ032) and 10% fetal bovine serum (Gibco, order no. 16140-071). The night before measurement, MDA-MB-468 adherent cells were detached from plastic with a solution of trypsin-EDTA (PanEco, order no. Π039π), the solution was then inactivated by a DMEM complete medium, centrifuged at 1000 RPM (Eppendorf, 5804 R), a suspension of cells was prepared in a DMEM complete medium, introduced into 96-well culture plates (Corning Inc, order no. 3599) at 8×10^3 cells in 100 μl of medium per well. The next day, test compounds were dissolved in DMSO and diluted with a DMEM complete medium to a final concentration ranging from 50 μM to 10 pM. Diluted compounds in a volume of 50 μl were introduced into the plate wells with cells in triplicates (the final concentration of DMSO was no more than 1%) and incubated at 37° C. in an incubator with 5% CO2 for 96 hours. NCl-H82 suspension cell line was prepared on the day of the analysis. 10×10^3 cells in 100 μl of an RPMI-1640 complete medium were added to each well of a 96-well plate. The procedure for sample dilution is as described above. Cells with test compounds were incubated at 37° C. in an incubator with 5% CO2 for 120 hours. Following incubation, […] of AlamarBlue reagent (Thermo Fisher Scientific Inc., order no. DAL1100) was added to the wells, the contents of the plates were stirred in an orbital shaker (Biosan, Latvia), then further incubated for 5.5-6 hours at 37° C. in an incubator with 5% CO2. The number of viable cells was detected using the Infinite M200Pro microplate spectrophotometer (Tecan Group Ltd, Switzerland) by way of measuring a fluorescent signal at an excitation wavelength (λEx) of 540 nm and an emission wavelength (λEm) of 590 nm.
IC50 value was calculated using the Magellan software (Tecan Group Ltd, Switzerland) by approximating experimental points by four-parameter model with the optimization by Levenberg-Marquardt: […]

[6] = General cytotoxicity on primary differentiated HepaRG cells (72 h); type: cell-based; conditions: human, general toxicity, mean value from several measurements
How it was run: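 Test compounds spanning 200 μM to 0.2 nM were incubated for 72 hours with primary differentiated HepaRG cells. Cells had been kept one week in supplemented hepatic medium and seeded the night before at 25×10^3 per well, and viability was then measured.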

[7] = Microsomal stability in human liver microsomes (HLM); type: in vitro ADME; conditions: 1 μM test compound
Protocol: The procedure for investigating the metabolism of selected compounds was carried out in microsomal fractions of the liver (of rats, mice, humans) in the presence of a phase I metabolism cofactor (NADPH).
The rate of enzymatic decomposition of the compound in liver microsomes in in vitro analysis was determined by keeping a reaction mixture comprising 0.5 mg/ml of pooled human, rat or mouse liver microsomes, 1 μM test compound, 1.5 mM […] (Carbosynth, UK, cat. no. NN108711101) and 1.5 mM magnesium chloride in 0.1 M sodium phosphate buffer (pH 7.4) in a solid-state thermostat at 37° C. (XenoTech, USA, order no. H2610, cat. no. R1000, cat. no. M1000). Incubation was carried out in three replicates.
To determine the stability of compounds under sample preparation conditions, an aliquot in two replicates with the test compound and a microsomal fraction devoid of the NADPH cofactor, which was incubated for 40 minutes at 37° C.
Reactions were stopped at 0, 10, 20, 30 and 40 min time points by way of adding an ice mixture of acetonitrile:methanol (3:1) comprising an internal standard.
Samples were then centrifuged to remove the precipitated protein, supernatants were analyzed using HPLC-MS/MS to determine in vitro clearance (CLint) of the compounds. The Agilent 6410 mass spectrometer (Agilent, USA) combined with the Agilent 1260 Infinity II HPLC liquid chromatograph (Agilent, USA) and a cooling autosampler controlled by MassHunter software (Agilent, USA) was used as an HPLC-MS/MS system. Chromatographic analysis was performed on a C18 reversed-phase HPLC column (Agilent, Waters or equivalent) in a gradient elution mode in a system of mobile phases: 0.1% formic acid in water/0.1% formic acid in acetonitrile, flow rate: 0.5 ml/min, column T=35° C. Mass spectrometric detection was performed with electrospray ionization in multiple reaction monitoring mode. Precursor ions, fragment ions and collision energies for each substance were selected experimentally.
A graph of dependence of the logarithmic ratio between substance's peak area and internal standard's peak area vs time was built. The dependent coefficient of this line corresponded to the elimination rate constant k, on the basis of which the in vitro clearance CLint was calculated:
Based on resulting in vitro clearance CLint values, the microsomal stability of the selected compounds for humans, rats and mice was concluded.

[8] = biological target: CDK13/Cyclin K (Homo sapiens, UniProt Q14004); assay: Inhibition of CDK13/Cyclin K kinase activity (ADP-Glo); type: biochemical
Sequence of CDK13/Cyclin K (Q14004 whole entry): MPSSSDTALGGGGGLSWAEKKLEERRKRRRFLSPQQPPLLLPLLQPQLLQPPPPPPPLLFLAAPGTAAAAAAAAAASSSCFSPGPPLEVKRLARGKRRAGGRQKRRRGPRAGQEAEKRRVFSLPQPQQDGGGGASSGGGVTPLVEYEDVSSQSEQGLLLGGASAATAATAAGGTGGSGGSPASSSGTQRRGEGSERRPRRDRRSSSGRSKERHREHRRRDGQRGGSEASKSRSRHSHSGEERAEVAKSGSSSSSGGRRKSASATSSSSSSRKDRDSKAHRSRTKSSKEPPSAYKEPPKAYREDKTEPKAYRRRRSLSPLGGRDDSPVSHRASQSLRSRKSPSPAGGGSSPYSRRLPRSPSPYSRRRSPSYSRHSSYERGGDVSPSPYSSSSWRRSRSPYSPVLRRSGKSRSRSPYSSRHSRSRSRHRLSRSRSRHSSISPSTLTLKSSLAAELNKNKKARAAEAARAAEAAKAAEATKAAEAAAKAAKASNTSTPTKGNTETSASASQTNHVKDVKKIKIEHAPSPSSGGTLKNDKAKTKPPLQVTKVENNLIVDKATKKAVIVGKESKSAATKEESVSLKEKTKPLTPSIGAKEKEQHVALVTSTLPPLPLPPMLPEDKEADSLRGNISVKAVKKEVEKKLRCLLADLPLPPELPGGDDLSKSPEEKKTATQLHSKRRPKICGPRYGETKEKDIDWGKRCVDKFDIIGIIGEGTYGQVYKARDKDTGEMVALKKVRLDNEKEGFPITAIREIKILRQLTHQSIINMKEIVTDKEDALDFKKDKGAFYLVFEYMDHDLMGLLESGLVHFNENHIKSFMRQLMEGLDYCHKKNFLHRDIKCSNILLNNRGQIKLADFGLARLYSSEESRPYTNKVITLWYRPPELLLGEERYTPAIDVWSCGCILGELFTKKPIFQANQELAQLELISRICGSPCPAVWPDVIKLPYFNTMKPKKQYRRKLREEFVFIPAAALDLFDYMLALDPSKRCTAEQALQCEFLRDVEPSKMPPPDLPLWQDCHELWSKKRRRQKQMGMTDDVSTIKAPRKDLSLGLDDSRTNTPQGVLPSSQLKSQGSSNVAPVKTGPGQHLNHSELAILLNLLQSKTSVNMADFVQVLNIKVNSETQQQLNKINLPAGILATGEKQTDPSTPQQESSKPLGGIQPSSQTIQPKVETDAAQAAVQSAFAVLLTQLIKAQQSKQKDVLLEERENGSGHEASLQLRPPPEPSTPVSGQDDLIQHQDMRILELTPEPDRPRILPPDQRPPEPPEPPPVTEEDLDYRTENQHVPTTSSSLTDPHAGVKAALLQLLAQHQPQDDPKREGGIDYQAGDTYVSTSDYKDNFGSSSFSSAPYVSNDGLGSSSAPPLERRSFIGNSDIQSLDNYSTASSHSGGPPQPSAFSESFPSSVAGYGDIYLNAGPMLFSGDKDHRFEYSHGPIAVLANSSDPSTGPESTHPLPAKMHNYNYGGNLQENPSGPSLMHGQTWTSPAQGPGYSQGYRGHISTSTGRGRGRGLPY
Sequence of CDK13/Cyclin K (O75909 whole entry partner): as the sequence (O75909 whole entry partner) above
Protocol: Measurements were carried out in a 5 μl reaction volume using a 384-well plate (Corning Inc., order no. 4513). The analyzed substances were titrated from 50 μM in increments of 4 at 11 concentration points in a normal strength kinase buffer A (Thermo Fisher Scientific Inc, cat. no. PV3189) supplemented with DTT (Sigma, orde. no. 646563-10X.5ML) and prepared with water (Panreac, order no. 701074). Kinase was diluted in an analogous buffer, mixed with test compounds in plate wells and preincubated for 10 minutes at 25° C. Following incubation, a mixture of reaction substrate (CDKtide (SignalChem, order no. C06-58) or Histone H1 (SignalChem, order no. H10-54N) or PDKtide (SignalChem, order no. P10-58) and ATP (SignalChem, order no. V915B) prepared on a normal strength kinase buffer A was added. 1% solution of dimethyl sulfoxide (DMSO) (Sigma-Aldrich, order no. D2438) in the reaction volume was used as a negative control. The final concentrations of all reaction components are shown in Table 5. The plate was centrifuged at 400 rcf (Eppendorf, 5804 R) for 1 minute and incubated for 40-60 minutes at 25° C. The amount of ATP consumed in the kinase reaction was then measured using the ADP-Glo™ detection system. Luminescence signal was measured using Spark 20M tablet multifunction reader (Tecan Group Ltd, Switzerland). IC50 value was calculated using Magellan 7.2 (Tecan Group Ltd, Switzerland) by approximating experimental points by four-parameter model with the optimization by Levenberg-Marquardt:
[formula] • where A is the upper asymptote; D is the lower asymptote; C is IC50, half-maximal inhibitory concentration of kinase, nM; B is the curvature (slope).

[9] = Passive membrane permeability through PAMPA artificial membrane, pH 7.4; type: in vitro ADME; conditions: pH 7.4, 10 μmol, 20 hours at room temperature, mean of multiple measurements, read-out: PAMPA passive permeability Pe
How it was run: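 Compound at 10 μmol in 0.01 M phosphate buffer pH 7.4 placed in donor wells over lecithin-phospholipid-impregnated PVDF filter, buffer in acceptor; 20 h at room temperature. Donor and acceptor levels measured by RP-HPLC-UV; Pe (cm/s) and membrane retention R (%) calculated.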

[10] = mean of multiple measurement series, ATP 10 μM, read-out: CDK7/Cyclin H/MNAT1 IC50
[11] = mean value from several measurements, read-out: IC50 CDK7/Cyclin H/MNAT
[12] = mean of multiple measurement series, ATP 50 μM, read-out: CDK2/Cyclin A IC50
[13] = mean value from several measurements, read-out: IC50 CDK2/Cyclin A
[14] = mean of multiple measurement series, ATP 50 μM, read-out: CDK9/Cyclin K IC50
[15] = mean value from several measurements, read-out: IC50 CDK9/Cyclin K
[16] = mean value from several measurements, read-out: IC50 CDK13/Cyclin K

Sequence of CDK7/Cyclin H/MNAT1 (P50613 whole entry): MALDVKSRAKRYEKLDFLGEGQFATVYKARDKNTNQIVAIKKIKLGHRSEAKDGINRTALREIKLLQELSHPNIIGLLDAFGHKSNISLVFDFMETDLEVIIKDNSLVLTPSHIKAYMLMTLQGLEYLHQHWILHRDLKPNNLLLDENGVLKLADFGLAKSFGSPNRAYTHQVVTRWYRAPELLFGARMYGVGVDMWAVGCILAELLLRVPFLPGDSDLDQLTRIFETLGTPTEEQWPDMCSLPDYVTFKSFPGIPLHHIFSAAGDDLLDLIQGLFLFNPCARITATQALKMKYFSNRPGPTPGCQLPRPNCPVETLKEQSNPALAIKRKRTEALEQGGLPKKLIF
Sequence of CDK7/Cyclin H/MNAT1 (P51946 whole entry partner): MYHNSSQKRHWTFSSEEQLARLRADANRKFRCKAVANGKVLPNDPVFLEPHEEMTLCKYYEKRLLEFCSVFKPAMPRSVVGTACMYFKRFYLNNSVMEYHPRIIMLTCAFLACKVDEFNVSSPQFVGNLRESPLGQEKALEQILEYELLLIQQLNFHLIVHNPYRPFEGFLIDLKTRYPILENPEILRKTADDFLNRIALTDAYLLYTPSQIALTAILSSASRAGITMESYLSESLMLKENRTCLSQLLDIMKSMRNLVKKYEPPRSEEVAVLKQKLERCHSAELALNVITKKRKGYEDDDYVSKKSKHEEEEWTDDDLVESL
Sequence of CDK7/Cyclin H/MNAT1 (P51948 whole entry partner): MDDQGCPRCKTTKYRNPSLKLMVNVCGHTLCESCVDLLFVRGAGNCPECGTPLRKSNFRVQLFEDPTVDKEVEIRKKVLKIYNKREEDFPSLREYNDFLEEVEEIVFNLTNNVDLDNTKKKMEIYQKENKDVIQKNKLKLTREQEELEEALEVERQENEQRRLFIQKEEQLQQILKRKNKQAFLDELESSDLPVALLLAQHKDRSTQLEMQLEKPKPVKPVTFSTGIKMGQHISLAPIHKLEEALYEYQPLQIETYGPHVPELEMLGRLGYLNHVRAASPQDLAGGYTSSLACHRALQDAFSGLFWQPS

Which IC50 [1, 10] does the source give for `Cc1noc(C)c1-n1ccc2c(-c3nc(N[C@H]4CCCNC4)ncc3C(F)(F)F)c[nH]c2c1=O` [CDK7_924, 6-(3,5-dimethyl-1,2-oxazol-4-yl)-3-(2-{[(3S)-piperidin-3-yl]amino}-5-(trifluoromethyl)pyrimidin-4-yl)-1H,6H,7H-pyrrolo[2,3-c]pyridin-7-one] here?
The IC50 was under 5 nM.

What about the IC50 [1, 11] of the same compound?
Its IC50 is under 5 nM.

What about the IC50 [2, 12] of the same compound?
The IC50 was 7800 nM.

What about the IC50 [2, 13] of the same compound?
The IC50 was over 200 nM.

And the IC50 [3, 14]?
The IC50 was 431 nM.

And the IC50 [3, 15]?
Its IC50 is over 200 nM.

And the IC50 [4]?
Its IC50 is under 10 nM.

And the IC50 [5]?
The IC50 was 10 to 100 nM.

And the CC50 at 72 h [6]?
The CC50 at 72 h was over 2000 nM.

And the “In vitro clearance CLint (HLM)” value [7]?
The value was “A (Clint < 20 μl/(min · mg of protein))”.

With `Cn1nnc(-c2cc(-c3nc(N[C@H]4CCCNC4)ncc3C(F)(F)F)c[nH]2)n1` [CDK7_1000, 4-[5-(2-methyl-2H-1,2,3,4-tetrazol-5-yl)-1H-pyrrol-3-yl]-N-[(3S)-piperidin-3-yl]-5-(trifluoromethyl)py-rimidin-2-amine] as the compound, how does the IC50 [1, 11] read?
The IC50 was under 5 nM.

What about the IC50 [2, 13] of the same compound?
Its IC50 is over 200 nM.

What about the IC50 [3, 15] of the same compound?
The IC50 was 5 to 50 nM.

What about the IC50 [8, 16] of the same compound?
The IC50 was 5 to 50 nM.

And the IC50 [4]?
The IC50 was 10 to 100 nM.

What about the IC50 [5] of the same compound?
The IC50 was 10 to 100 nM.

And the CC50 at 72 h [6]?
Its CC50 at 72 h is 100 to 500 nM.

And the Papp at 20 h, 10 μmol [9]?
Its Papp at 20 h, 10 μmol is under 1 ×10⁻⁶ cm/s.

What does the source list for `FC(F)(F)c1cnc(N[C@H]2CCCNC2)nc1-c1c[nH]c(-c2noc(C3CC3)n2)c1` [CDK7_1103]?
IC50 [1, 11]: < 5 nM; IC50 [2, 13]: > 200 nM; IC50 [3, 15]: 50 to 200 nM; IC50 [4]: 10 to 100 nM; IC50 [5]: 10 to 100 nM; CC50 at 72 h [6]: 100 to 500 nM; In vitro clearance CLint (HLM) [7]: A (Clint < 20 μl/(min · mg of protein))

Which IC50 [1, 10] does the source give for `CN1CCCc2c(-c3nc(N[C@H]4CCC5(CC5)NC4)ncc3C(F)(F)F)c[nH]c2C1=O` [CDK7_1201, 3-[2-({4-azaspiro[2.5]octan-6-yl}amino)-5-(trifluoromethyl)py-rimidin-4-yl]-7-methyl-1H,4H,5H,6H,7H, 8H-pyrrolo[2,3-c]azepin-8-one] here?
Its IC50 is under 5 nM.

And the IC50 [1, 11]?
The IC50 was under 5 nM.

What about the IC50 [2, 12] of the same compound?
Its IC50 is 4500 nM.

And the IC50 [2, 13]?
Its IC50 is over 200 nM.

And the IC50 [3, 14]?
Its IC50 is 112 nM.

And the IC50 [3, 15]?
The IC50 was 50 to 200 nM.

What about the IC50 ([8]; mean of multiple measurement series, ATP 10 μM, read-out: CDK13/Cyclin K IC50) of the same compound?
The IC50 was 65 nM.

What about the IC50 [8, 16] of the same compound?
Its IC50 is 50 to 200 nM.

And the IC50 [4]?
The IC50 was under 10 nM.

And the IC50 [5]?
The IC50 was under 10 nM.

And the CC50 at 72 h [6]?
The CC50 at 72 h was 500 to 2000 nM.

What about the Papp at 20 h, 10 μmol [9] of the same compound?
Its Papp at 20 h, 10 μmol is 5 to 10 ×10⁻⁶ cm/s.
